What was measured:
[1] = system: Activated Calf Thymus DNA; test: DNA/methyl green assay (DNA intercalation); format: binding
Description: The most promising members (13a, 14a, 16, 17, 18, 19, and 20) were further investigated for their binding affinity against DNA. […] The results of DNA-binding affinities were reported in Table 1 as IC50 values calculated from the concentration-inhibition response curve.
Activated Calf Thymus DNA (Merk, Germany) was treated with methyl green (Merk, Germany), then the synthesized compounds were applied to displace the methyl green dye, producing equivalent color.
(§1) After that, the DNA was run on 1% agarose gel in BioRad gel electrophoresis system for 1–2 h followed by staining with GelRedTM stain for 2 h and destained for 15 min with TAE buffer. The gel was imaged via BioRad’s Gel DocTMEZ system. Both supercoiled and linear strands DNA were incorporated in the gel as markers for DNA-Topo II intercalators. The results of IC50 values were calculated using the GraphPad Prism version 7. Each reaction was performed in duplicate, and at least three independent determinations of each IC50 were made.
(§2) S2.3. DNA/Methyl Green Assay […]
methyl green dye method described by Burres et al. Activated Calf Thymus DNA (Merk, Germany) was treated with methyl green (Merk, Germany), then the synthesized compounds were applied to displace the methyl green dye, producing equivalent color. […]

[2] = target: Topo II α and supercoiled pBR322 DNA (Homo sapiens, UniProt P11388); test: Topo II-mediated DNA cleavage assay; format: biochemical
Description: The Topo II inhibitors may act through two pathways. Firstly, it can stabilize the Topo II-DNA covalent complexes leading to the formation of linear DNA (Topo II poisons). Secondly, it can block the catalytic site of Topo II (Topo II catalytic inhibitors).
Topo II-mediated DNA cleavage assay was carried out according the reported method by Huang et al. as follows.
Topo II α (10 U), supercoiled pBR322 DNA (0.2 μg) and compound 16 at concentration of 5 and 10 μM were added in Topo II buffer ([…], pH 8.0, 150 mM NaCl, 10 mM MgCl2 2mM ATP, 0.5mM dithiothreitol, and 30 μg/mL BSA) of 20 μL volume. After incubating for 6 min at 37°C and then respectively adding 2 μL of 10% SDS, 2 μL of 250mM NaEDTA, pH 8.0, 2 μL of 0.8 mg/mL Proteinase K. Following reactions were incubated for another 30 min at 45°C. Samples were mixed with 4 μL of 6×loading buffer, heated at 70°C for 2 min and subjected to electrophoresis in a 1% agarose gel in 1×TAE buffer (30 mL) with 1 μL Gel Red. Finally, DNA bands were visualized by using UV light, photographed by using Alpha Innotech digital imaging system.
as §1, §2
methyl green dye method described by Burres et al. Activated Calf Thymus DNA (Merk, Germany) was treated with methyl green (Merk, Germany), then the synthesized compounds were applied to displace the methyl green dye, producing equivalent color. The results were reported […]
S2.4. Topo II-mediated DNA cleavage assay […]

Topo II α and supercoiled pBR322 DNA, sequence (P11388 whole entry): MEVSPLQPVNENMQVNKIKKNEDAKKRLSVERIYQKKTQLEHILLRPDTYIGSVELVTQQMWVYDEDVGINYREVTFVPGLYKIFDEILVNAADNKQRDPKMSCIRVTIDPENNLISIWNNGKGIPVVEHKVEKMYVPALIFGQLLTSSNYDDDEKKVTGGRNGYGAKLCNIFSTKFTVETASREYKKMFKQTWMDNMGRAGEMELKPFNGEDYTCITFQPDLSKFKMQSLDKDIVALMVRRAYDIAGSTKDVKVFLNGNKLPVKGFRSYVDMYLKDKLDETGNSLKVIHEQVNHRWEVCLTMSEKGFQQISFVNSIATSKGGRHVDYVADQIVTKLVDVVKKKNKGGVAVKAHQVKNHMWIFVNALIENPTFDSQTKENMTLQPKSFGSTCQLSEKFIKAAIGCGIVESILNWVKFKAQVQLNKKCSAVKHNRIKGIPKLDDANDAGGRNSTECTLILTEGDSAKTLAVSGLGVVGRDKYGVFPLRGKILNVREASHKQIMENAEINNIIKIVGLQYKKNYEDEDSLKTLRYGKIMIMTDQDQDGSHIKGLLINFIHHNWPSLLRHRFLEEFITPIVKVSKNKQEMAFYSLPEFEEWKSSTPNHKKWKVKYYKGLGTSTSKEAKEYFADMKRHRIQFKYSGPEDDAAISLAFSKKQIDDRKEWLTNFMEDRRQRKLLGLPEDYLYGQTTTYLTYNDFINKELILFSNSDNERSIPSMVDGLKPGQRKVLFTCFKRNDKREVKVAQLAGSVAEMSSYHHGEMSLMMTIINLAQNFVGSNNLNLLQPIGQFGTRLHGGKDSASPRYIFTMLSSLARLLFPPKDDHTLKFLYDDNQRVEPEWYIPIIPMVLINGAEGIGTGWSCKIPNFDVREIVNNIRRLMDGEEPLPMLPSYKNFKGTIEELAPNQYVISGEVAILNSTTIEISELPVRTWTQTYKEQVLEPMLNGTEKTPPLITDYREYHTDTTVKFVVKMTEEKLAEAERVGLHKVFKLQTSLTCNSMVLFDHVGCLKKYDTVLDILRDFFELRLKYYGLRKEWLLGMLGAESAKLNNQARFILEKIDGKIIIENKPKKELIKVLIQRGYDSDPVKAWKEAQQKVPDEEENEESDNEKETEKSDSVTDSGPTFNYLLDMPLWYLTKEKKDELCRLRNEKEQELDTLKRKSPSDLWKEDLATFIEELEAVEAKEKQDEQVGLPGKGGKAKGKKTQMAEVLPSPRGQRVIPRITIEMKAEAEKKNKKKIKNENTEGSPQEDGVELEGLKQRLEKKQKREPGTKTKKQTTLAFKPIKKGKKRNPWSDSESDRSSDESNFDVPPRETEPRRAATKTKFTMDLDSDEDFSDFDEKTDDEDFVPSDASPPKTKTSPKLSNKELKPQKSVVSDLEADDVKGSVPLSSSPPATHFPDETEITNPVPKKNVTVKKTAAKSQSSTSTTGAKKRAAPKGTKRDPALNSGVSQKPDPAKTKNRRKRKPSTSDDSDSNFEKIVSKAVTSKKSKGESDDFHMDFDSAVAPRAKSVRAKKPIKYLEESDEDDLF

CCCNc1nc2ccccc2c2nnc(C(F)(F)F)n12 [Compound 16, N-Propyl-3-(trifluoromethyl)-[1,2,4]triazolo[4,3-c]quinazolin-5-amine]
IC50 ([1]; 50% inhibition concentration of DNA/methyl green assay, read-out: DNA/Methyl green (IC50)): 10.2 ± 0.4 µM
LogIC50 (best-fit value, DNA/Topo-II Inhibition (%) curve) ([1]; log of drug concentration in uM, supplement curve fit): 1.011
HillSlope (best-fit value, DNA/Topo-II Inhibition (%) curve) ([1]; supplement curve fit): 0.3743
Effect on relaxation of supercoiled DNA by Topo II ([2]; 5 μM): induced relaxation for the DNA
Effect on relaxation of supercoiled DNA by Topo II ([2]; 10 μM): blocked the formation of relaxed DNA
Formation of linear DNA ([2]; all concentrations (5 and 10 μM)): the linear DNA was not formed

From paper PMC9886266, “New [1,2,4]triazolo[4,3-c]quinazolines as intercalative Topo II inhibitors: Design, synthesis, biological evaluation, and in silico studies” (PLOS ONE, 2023)
